From publication PMC6749294, “Comparison of the Utility of RP-TLC Technique and Different Computational Methods to Assess the Lipophilicity of Selected Antiparasitic, Antihypertensive, and Anti-inflammatory Drugs” (Molecules, 2019)
Read-outs that look alike come from different tables or passages of the source.

Experiments:
[1] = RP-TLC lipophilicity on RP-18F254 plates (Soczewiński-Wachtmeister's and Ościk's equations); assay type: physicochemical; settings: for RMWO(m) / RMWO(a): Ościk's equation; for RMWO(m) / RMWS(m) / φ0(m): methanol-water mobile phase; for RMWO(m) / RMWS(a) / RMWS(m) / RMWO(a): silica gel RP-18F254; for RMWS(a) / RMWS(m): Soczewiński-Wachtmeister's equation; for RMWS(a) / φ0(a) / RMWO(a): acetone-water mobile phase; for φ0(a) / φ0(m): φ0 = RMWS/S (Equation 6)
Description: The chromatographic analysis was carried on RP-18F254 plates (Art.1.05559, E. Merck, Darmstadt, Germany). The solutions of the investigated compounds were spotted separately onto chromatographic plates using precise micropipettes in a quantity of 5 µL each.
The chromatograms were developed using the mixtures of methanol-water and acetone-water in different volume compositions, as follows:
For antiparasitic drugs: • - the content of methanol was gradually varied by 10% (v/v) from 20–100 (%, v/v), • - the content of acetone was gradually varied by 10% (v/v) from 10–100 (%, v/v).
In the case of antihypertensive drugs, the content of methanol and acetone was gradually varied by 5% (v/v) from 60–100 (%, v/v).
For non-steroidal anti-inflammatory drugs: • - the content of methanol was gradually varied by 5% (v/v) from 60–100 (%, v/v), • - the content of acetone was gradually varied by10% (v/v) from 20–100 (%, v/v).
Next, the chamber was saturated with solvent vapor for 20 min. The chromatograms were developed at room temperature, e.g., 22 ± 1 °C. The development distance was 75 mm. The plates were dried at room temperature, e.g., 22 ± 1 °C. Each chromatogram was done in triplicate.
Densitometric scanning was done using a TLC Scanner 3 with WinCATS 1.4.2 software manufactured by Camag (Muttenz, Switzerland) in the reflectance/absorbance mode.
Densitometric scanning was performed at a respective absorption maximum for the analyzed drugs. The slit dimensions were 10.00 × 0.40 mm, Macro; the optimized optical system was light; the scanning speed was 20 mm/s; the data resolution was 100 μm/step; the measurement type was remission; the measurement mode was absorption; and the optical filter was second order. Each track was scanned three times, and a baseline correction (lowest slope) was used.
In order to determine the lipophilicity parameter based on Soczewiński-Wachtmeister′s procedure, the RF values obtained under the applied chromatographic conditions were converted into RM values according to the expression:(4) RM=log1/RF−1 The linear relationship between RM and the volume content of methanol and acetone in the mobile phase (φ) permits an extrapolation of the calculated RM values to the zero concentration of methanol and acetone in accordance with Soczewiński-Wachtmeister′s Equation (5). […] (5) RM=RMWS−Sφ where: RM is the RM value of the studied compound, RMWS is the RM value extrapolated to zero concentration of methanol and acetone (organic modifier) in the used mobile phase, i.e., methanol-water and acetone-water, respectively, S is the slope of the regression plot (see Supplementary Materials), and φ is the volume fraction of methanol and acetone in the mobile phase. In addition to this, on the basis of the said plot, i.e., Soczewiński-Wachtmeister′s equation, another chromatographic descriptor (φ0) has been calculated according to the following formula (Equation (6)): (6) φ0 = RMWS/S where: RMWS is the chromatographic parameter obtained by using Soczewiński-Wachtmeister’s equation in accordance with Equation (5), and S is the regression slope.
The measurable lipophilicity value expressed as RMWO was determined according to Ościk’s equation [29, 30, 32]:(7) Gxorg=xorg1−xorg/RM−xorgRMorg−1−xorgRMWO=axorg+b where: RM, RMorg, and RMWO are the solute retention factors in the mixed mobile phase, pure organic solvent, and water, respectively; xorg is the molar fraction of the organic solvent in the mobile phase; a and b are constants in the linear correlation between G(xorg) and xorg in the used mobile phase.

[2] = Prediction of logPexp from φ0(a) with Equation (3); assay type: physicochemical; settings: chromatography with acetone-water mobile phase; calculated from φ0(a) with Equation (3); read-out: predicted logPexp
Excerpt: The continuation of our lipophilicity study of fifteen biocompounds belonging to the three groups of drugs and the determination of another lipophilicity descriptor, namely φ0, in accordance with Equation (6), allowed us to obtain the two new lipophilicity parameters φ0(a) and φ0(m) for a proper used mobile phase, i.e., acetone-water (a) and methanol-water (m), respectively. What is important is that the calculation of this parameter was possible because a satisfactory linear relationship between both, i.e., the intercept and slope (RMWS and S), in each obtained Soczewiński-Wachtmeister’s equation was achieved (r > 0.98). In order to estimate the utility of these parameters for the prediction of the theoretical as well as experimental parameter of the lipophilicity of a large group of investigated compounds, a correlation matrix between all previously described (thus chromatographic) parameters, as well as the computed and experimental partition coefficient, was done. The results of the correlation analysis indicate that among all φ0 values the best is the one obtained for acetone-water, which is to say φ0(a). […]
This fact confirms the potential utility of the additionally calculated chromatographic parameter φ0(a) to determine the partition coefficient of all examined compounds. It can be very useful in the case of the lack of this value, like for example for the experimental logP of nilvadipine, lacidipine and carprofen. A test was performed on Equation (3) to determine the values of logPexp for the three abovementioned compounds. The results of the predicted logPexp were: 3.65 for nilvadipine, 3.96 for lacidipine and 3.54 for carprofen, respectively. It can be observed that the newly obtained logPexp values are in good agreement with the other previously described theoretical logP of these compounds. They are placed in the similar range of logP values.

[3] = set-up: method as in PMID 12972078; settings: RP-HPLC, cited from earlier work; for log kwODS: ODS column μBondapak C18; for log kw IAM: immobilized artificial membrane (IAM.PC.MG) column
[4] = Experimental n-octanol-water partition coefficient (logPexp) from literature and databases; assay type: physicochemical; settings: average of the differing literature logPexp values (± spread)
Excerpt: The next stage of this paper was a comparison of all obtained RMWS and RMWO parameters calculated using […] equations with theoretical and experimental logP values obtained in an n-octanol-water system.

[5] = n-octanol-water, cited from earlier work
[6] = cited from earlier work; for Rm0: RP-18F254 plates, acetonitrile-water; for logP: calculated from regression curve Rm0 = f(logP)
[7] = set-up: method as in PMID 9809446; settings: methanol-water, cited from earlier work
[8] = cited from earlier work
[9] = set-up: method as in doi:10.1016/S0021-9673(01)88013-4; settings: RP-HPLC; cited from earlier work
[10] = cited from earlier work; remark: listed apart in the source
[11] = RP-18WF254 plates, Soczewiński-Wachtmeister's equation

SMILES | RMWO(m) [1] | RMWS(a) [1] | RMWS(m) [1] | φ0(a) [1] | φ0(m) [1] | RMWO(a) [1] | logP [4] | also measured
CCOC(=O)C1=C(C)NC(C)=C(C(=O)OC)C1c1cccc(Cl)c1Cl (stereo not shown) [Felodipine, felodipine] | 6.57 | 3.75 | 4.27 | 0.775 | 0.929 | 5.57 | 4.16 | logPexp ([5]; ref 6): 3.86 [6]; logPexp ([5]; ref 41): 4.46 [41]
COC(=O)C1=C(C)NC(C)=C(C(=O)OC(C)C)C1c1cccc2nonc12 (stereo not shown) [Isradipine, isradipine] | 5.08 | 3.54 | 3.13 | 0.751 | 0.837 | 5.67 | – | logPexp ([5]; ref 6): 4.28 [6]
CCOC(=O)C1=C(C)NC(C)=C(C(=O)OCC)C1c1ccccc1/C=C/C(=O)OC(C)(C)C [Lacidipine, lacidipine] | 6.89 | 4.51 | 5.01 | 0.793 | 0.937 | 6.63 | – | chromatographic logP [2]: 3.96
Cc1ncc([N+](=O)[O-])n1CCO [Metronidazole, metronidazole] | 1.21 | 0.65 | 0.91 | 0.398 | 0.564 | 0.94 | 0.1 | logPexp ([5]; ref 34): –0.22; logPexp ([5]; ref 35): –0.10; logPexp ([5]; ref 36): –0.02 [36]; logPexp ([5]; ref 37): 0.75 [37]; RMW ([8]; RP-TLC, Soczewiński-Wachtmeister's equation): 0.08; RMW(paraffin) ([8]; stationary phase liquid paraffin): 0.60; RMW(squalene) ([8]; stationary phase squalene): 0.53; logk' [9]: –0.067; hydrophilic-hydrophobic properties ([10]; according to Hoffmann et al. and Jokipii et al.): lipophilic compound that penetrates well into most tissues; hydrophilic-hydrophobic properties ([10]; reported by Biagi): hydrophilic; hydrophilic-hydrophobic properties ([10]; reported by Másson et al.): very hydrophilic
Cc1ncc([N+](=O)[O-])n1CC(O)CCl (stereo not shown) [Ornidazole, ornidazole] | 1.92 | 1.22 | 1.46 | 0.565 | 0.676 | 1.42 | 0.41 | –
CCCCC1C(=O)N(c2ccccc2)N(c2ccccc2)C1=O [Phenylbutazone, phenylbutazone] | 3.54 | 1.72 | 1.84 | – | – | – | – | RMO ([7]; Nano-Sil CNF254 plates): 1.50; RMO [7, 11]: 2.71
Cc1ncc([N+](=O)[O-])n1CC(C)O (stereo not shown) [Secnidazole, secnidazole] | 1.72 | 0.95 | 1.26 | – | – | 1.21 | – | logPexp ([5]; ref 33): 0.22 [33]
CCS(=O)(=O)CCn1c([N+](=O)[O-])cnc1C [Tinidazole, tinidazole] | 1.69 | 0.89 | 1.17 | 0.463 | 0.612 | 1.11 | 0.18 | –

Further lines, with some results ahead:

RMWO(m) [1] | RMWS(a) [1] | RMWS(m) [1] | φ0(a) [1] | φ0(m) [1] | RMWO(a) [1] | logP [4] | SMILES | also measured
2.77 | 2.56 | 2.34 | 0.754 | 0.820 | – | – | CC(C(=O)O)c1ccc2c(c1)[nH]c1ccc(Cl)cc12 (stereo not shown) [Carprofen, carprofen] | chromatographic logP [2]: 3.54; log kwODS [3]: 3.85; log kw IAM [3]: 1.81
2.26 | 1.87 | 1.98 | 0.930 | 0.771 | – | 4 | CC(C(=O)O)c1ccc(-c2ccccc2)c(F)c1 (stereo not shown) [Flurbiprofen, flurbiprofen] | logPexp ([5]; ref 36): 4.16 [36]; logPexp ([5]; ref 42): 3.84 [42]; log kwODS [3]: 2.91; log kw IAM [3]: 1.58; Rm0 [6]: 2.5076; logP [6]: 3.82
4.08 | 2.57 | 2.19 | 0.747 | 0.790 | – | – | COc1ccc2c(c1)c(CC(=O)O)c(C)n2C(=O)c1ccc(Cl)cc1 [Indomethacin, indomethacin] | logPexp ([5]; ref 36): 4.27 [36]; logPexp ([5]; ref 42): 4.10 [42]; RMO ([7]; Nano-Sil CNF254 plates): 0.52; RMO [7, 11]: 2.62
3.76 | 1.26 | 1.47 | 0.640 | 0.687 | – | – | CC(C(=O)O)c1cccc(C(=O)c2ccccc2)c1 (stereo not shown) [Ketoprofen, ketoprofen] | RMO ([7]; Nano-Sil CNF254 plates): 2.31; RMO [7, 11]: 1.74; log kwODS [3]: 2.83; log kw IAM [3]: 1.02; Rm0 [6]: 1.8491; logP [6]: 2.66
3.74 | 2.61 | 2.49 | 0.789 | 0.865 | – | – | Cc1cccc(Nc2ccccc2C(=O)O)c1C [Mefenamic Acid, mefenamic acid] | logPexp ([5]; ref 39): 5.12 [39]
2.52 | 3.08 | 3.12 | 0.787 | 0.903 | – | – | COc1ccc2cc(CCC(C)=O)ccc2c1 [Nabumetone, nabumetone] | logPexp ([5]; ref 43): 3.08 [43]
5.57 | 4.07 | 3.66 | 0.764 | 0.886 | 6.28 | – | COC(=O)C1=C(C#N)NC(C)=C(C(=O)OC(C)C)C1c1cccc([N+](=O)[O-])c1 (stereo not shown) [Nilvadipine, nilvadipine] | chromatographic logP [2]: 3.65
